Tests used:
human full-length MKNK1 [1] = biological target: T1, human full-length MKNK1 (Homo sapiens (Human), UniProt Q9BUB5, T344D); assay: MKNK1 kinase high ATP assay (TR-FRET-based); format: biochemical; conditions: 2 mM ATP final conc.; 15 min preincubation with enzyme
Procedure: MKNK1 Kinase High ATP Assay
MKNK1-inhibitory activity at high ATP of compounds of the present invention after their preincubation with MKNK1 was quantified employing the TR-FRET-based MKNK1 high ATP assay as described in the following paragraphs.
As substrate for the kinase reaction the biotinylated peptide biotin-Ahx-[…] (C-terminus in amide form) was used, which can be purchased e.g. from the company Biosyntan (Berlin-Buch, Germany).
(§1) For the assay 50 nL of a 100 fold concentrated solution of the test compound in DMSO was pipetted into a black low volume 384 well microtiter plate (Greiner Bio-One, Frickenhausen, Germany), 2 μL of a solution of MKNK1 in aqueous assay buffer [50 mM HEPES pH 7.5, 5 mM magnesium chloride, 1.0 mM dithiothreitol, 0.005% (v/v) Nonidet-P40 (Sigma)] was added and the mixture was incubated for 15 min at 22° C. to allow pre-binding of the test compounds to the enzyme before the start of the kinase reaction. Then the kinase reaction was started by the addition of 3 μL of a solution of adenosine-tri-phosphate (ATP, 3.3 mM=>final conc. in the 5 μL assay volume is 2 mM) and substrate (0.1 μM=>final conc. in the 5 μL assay volume is 0.06 μM) in assay buffer and the resulting mixture was incubated for a reaction time of 30 min at 22° C. The concentration of MKNK1 was adjusted depending of the activity of the enzyme lot and was chosen appropriate to have the assay in the linear range, typical concentrations were in the range of 0.003 μg/mL. The reaction was stopped by the addition of 5 μL of a solution of TR-FRET detection reagents (5 nM streptavidine-XL665 [Cisbio Bioassays, Codolet, France] and 1 nM anti-ribosomal protein S6 (pSer236)-antibody from Invitrogen [#44921G] and 1 nM LANCE EU-W1024 labeled ProteinG [Perkin-Elmer, product no. AD0071]) in an aqueous EDTA-solution (100 mM EDTA, 0.1% (w/v) bovine serum albumin in 50 mM HEPES pH 7.5).
(§2) The resulting mixture was incubated for 1 h at 22° C. to allow the formation of complex between the phosphorylated biotinylated peptide and the detection reagents. Subsequently the amount of phosphorylated substrate was evaluated by measurement of the resonance energy transfer from the Eu-chelate to the streptavidine-XL. Therefore, the fluorescence emissions at 620 nm and 665 nm after excitation at 350 nm were measured in a TR-FRET reader, e.g. a Rubystar (BMG Labtechnologies, Offenburg, Germany) or a Viewlux (Perkin-Elmer). The ratio of the emissions at 665 nm and at […] was taken as the measure for the amount of phosphorylated substrate. The data were normalised (enzyme reaction without inhibitor=0% inhibition, all other assay components but no enzyme=100% inhibition).

human full-length MKNK1 [2] = biological target: T1, human full-length MKNK1; assay: MKNK1 kinase assay (MKNK1 TR-FRET assay); format: biochemical; conditions: 10 μM ATP final conc.; 15 min preincubation with enzyme
Procedure: MKNK1-inhibitory activity of compounds of the present invention was quantified employing the MKNK1 TR-FRET assay as described in the following paragraphs.
As substrate for the kinase reaction the biotinylated peptide biotin-Ahx-[…] (C-terminus in amide form) was used which can be purchased e.g. form the company Biosyntan (Berlin-Buch, Germany).
as §1, with “16.7 μM=>final” for “3.3 mM=>final”, “10 μM)” for “2 mM)”, “45” for “30”, “0.05 μg/ml.” for “0.003 μg/mL.”
as §2

T1 sequence (Q9BUB5 other isoform, or with tags, fused parts or gaps T344D): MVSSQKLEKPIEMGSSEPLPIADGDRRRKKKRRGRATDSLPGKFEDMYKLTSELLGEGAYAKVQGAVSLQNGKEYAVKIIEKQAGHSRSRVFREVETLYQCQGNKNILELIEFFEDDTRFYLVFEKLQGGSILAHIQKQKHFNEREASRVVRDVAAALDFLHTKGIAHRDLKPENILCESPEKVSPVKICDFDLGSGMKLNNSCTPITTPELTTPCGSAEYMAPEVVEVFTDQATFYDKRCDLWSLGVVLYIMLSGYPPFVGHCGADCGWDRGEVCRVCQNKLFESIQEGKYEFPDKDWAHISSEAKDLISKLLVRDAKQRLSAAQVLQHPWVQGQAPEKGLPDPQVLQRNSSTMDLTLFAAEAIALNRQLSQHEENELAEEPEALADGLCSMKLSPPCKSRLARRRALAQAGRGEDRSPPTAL

SMILES	IC50 (human full-length MKNK1 [1])	IC50 (human full-length MKNK1 [2])
C[C@@H](N)COc1ccc2ncc(-c3cc4cc(Cl)ccc4o3)n2n1 [Example 43, (2R)-1-{[3-(5-Chloro-1-benzofuran-2-yl)imidazo[1,2-b]pyridazin-6-yl]oxy}-propan-2-amine]	62 nM	33 nM
N[C@H](COc1ccc2ncc(-c3cc4cc(Cl)ccc4o3)n2n1)c1ccccc1 [Example 19, (1S)-2-{[3-(5-Chloro-1-benzofuran-2-yl)imidazo[1,2-b]pyridazin-6-yl]oxy}-1-phenylethanamine]	111 nM	25 nM
CC(CN)COc1ccc2ncc(-c3cc4ccccc4o3)n2n1 (centres unmarked) [Example 40, 3-{[3-(1-Benzofuran-2-yl)imidazo[1,2-b]pyridazin-6-yl]oxy}-2-methylpropan-1-amine]	18 nM	9 nM
NCC1(COc2ccc3ncc(-c4cc5ccccc5o4)n3n2)COC1 [Example 44, 1-[3-({[3-(1-Benzofuran-2-yl)imidazo[1,2-b]pyridazin-6-yl]oxy}methyl)oxetan-3-yl]methanamine]	63 nM	52 nM
NCCCOc1ccc2ncc(-c3cc4ccccc4o3)n2n1 [Example 11, 3-{[3-(1-Benzofuran-2-yl)imidazo[1,2-b]pyridazin-6-yl]oxy}propan-1-amine]	24 nM	8 nM
NCCCCOc1ccc2ncc(-c3cc4ccccc4o3)n2n1 [Example 8, 4-{[3-(1-Benzofuran-2-yl)imidazo[1,2-b]pyridazin-6-yl]oxy}butan-1-amine]	17 nM	7 nM
C[C@H](N)COc1ccc2ncc(-c3cc4ccccc4o3)n2n1 [Example 7, (2S)-1-{[3-(1-Benzofuran-2-yl)imidazo[1,2-b]pyridazin-6-yl]oxy}propan-2-amine]	18 nM	7 nM

— patent US9499547B2 (BAYER INTELLECTUAL PROPERTY GMBH, priority 2011, dated 2016)
